#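 GI50: concentration for 50% inhibition of growth. TGI marks complete inhibition of growth.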
# How the values were obtained:
# Assay in all cases: inhibition of tumour cell growth, NCI panel, 384-well format
# MDA-MB-468 breast = test system: MDA-MB-468 breast
# HS 578T breast = test system: HS 578T breast
# NCI-H522 lung = test system: NCI-H522 lung
# RPMI-8226 leukemia = test system: RPMI-8226 leukemia
# DU-145 prostate = test system: DU-145 prostate
# HT29 colon = test system: HT29 colon
# SF-295 CNS = test system: SF-295 CNS
# HOP-92 NSCLC = test system: HOP-92 NSCLC
# BT-549 breast = test system: BT-549 breast
# SK-MEL-5 melanoma = test system: SK-MEL-5 melanoma
# SK-MEL-2 melanoma = test system: SK-MEL-2 melanoma
# T-47D breast = test system: T-47D breast
# HOP-62 NSCLC = test system: HOP-62 NSCLC
# NCI-H322M lung = test system: NCI-H322M lung
# OVCAR-3 ovarian = test system: OVCAR-3 ovarian
# MCF7 breast = test system: MCF7 breast
# NCI-H23 lung = test system: NCI-H23 lung
# UACC-62 melanoma = test system: UACC-62 melanoma
# HCC-2998 colon = test system: HCC-2998 colon
# 786-0 renal = test system: 786-0 renal
# U251 glioblastoma = test system: U251 glioblastoma
# M14 melanoma = test system: M14 melanoma
# MOLT-4 leukemia = test system: MOLT-4 leukemia
# UACC-257 melanoma = test system: UACC-257 melanoma
# IGROV1 ovarian = test system: IGROV1 ovarian
# OVCAR-4 ovarian = test system: OVCAR-4 ovarian
# TK-10 renal = test system: TK-10 renal
# SF-268 CNS = test system: SF-268 CNS
# RXF 393 renal = test system: RXF 393 renal
# SK-MEL-28 melanoma = test system: SK-MEL-28 melanoma
# SF-539 CNS = test system: SF-539 CNS
# MALME-3M melanoma = test system: MALME-3M melanoma
# SNB-75 CNS = test system: SNB-75 CNS
# KM12 colon = test system: KM12 colon
# LOX IMVI melanoma = test system: LOX IMVI melanoma
# K-562 leukemia = test system: K-562 leukemia
# A498 renal = test system: A498 renal
# NCI/ADR-RES ovarian = test system: NCI/ADR-RES ovarian
# COLO 205 colon = test system: COLO 205 colon
# SNB-19 CNS = test system: SNB-19 CNS
# OVCAR-5 ovarian = test system: OVCAR-5 ovarian
# UO-31 renal = test system: UO-31 renal
# PC-3 prostate = test system: PC-3 prostate
# A549 NSCLC = test system: A549 NSCLC
# MDA-MB-435 melanoma = test system: MDA-MB-435 melanoma
# NCI-H460 NSCLC = test system: NCI-H460 NSCLC
# EKVX NSCLC = test system: EKVX NSCLC
# MDA-MB-231 breast = test system: MDA-MB-231 breast
# NCI-H226 lung = test system: NCI-H226 lung
# SK-OV-3 ovarian = test system: SK-OV-3 ovarian
# HCT-116 colon = test system: HCT-116 colon
# HCT-15 colon = test system: HCT-15 colon
# ACHN renal = test system: ACHN renal
# SR leukemia = test system: SR leukemia
# SN12C renal = test system: SN12C renal
# HL-60(TB) leukemia = test system: HL-60(TB) leukemia
# SW-620 colon = test system: SW-620 colon
# CAKI-1 renal = test system: CAKI-1 renal
# CCRF-CEM leukemia = test system: CCRF-CEM leukemia
smiles,measurement,setting,value
COc1nccc(-c2c(-c3ccc(F)cc3)ncn2C2CCC(O)CC2)n1 (stereo not drawn),GI50,MDA-MB-468 breast,13.2 µM
same,TGI,MDA-MB-468 breast,> 100 µM
same,GI50,HS 578T breast,> 100 µM
same,TGI,HS 578T breast,> 100 µM
same,GI50,NCI-H522 lung,22.6 µM
same,TGI,NCI-H522 lung,93.5 µM
same,GI50,RPMI-8226 leukemia,90.1 µM
same,TGI,RPMI-8226 leukemia,> 100 µM
same,GI50,DU-145 prostate,> 100 µM
same,TGI,DU-145 prostate,> 100 µM
same,GI50,HT29 colon,46 µM
same,TGI,HT29 colon,> 100 µM
same,GI50,SF-295 CNS,> 100 µM
same,TGI,SF-295 CNS,> 100 µM
same,GI50,HOP-92 NSCLC,> 100 µM
same,TGI,HOP-92 NSCLC,> 100 µM
same,GI50,BT-549 breast,> 100 µM
same,TGI,BT-549 breast,> 100 µM
same,GI50,SK-MEL-5 melanoma,90.3 µM
same,TGI,SK-MEL-5 melanoma,> 100 µM
same,GI50,SK-MEL-2 melanoma,> 100 µM
same,TGI,SK-MEL-2 melanoma,> 100 µM
same,GI50,T-47D breast,> 100 µM
same,TGI,T-47D breast,> 100 µM
same,GI50,HOP-62 NSCLC,> 100 µM
same,TGI,HOP-62 NSCLC,> 100 µM
same,GI50,NCI-H322M lung,> 100 µM
same,TGI,NCI-H322M lung,> 100 µM
same,GI50,OVCAR-3 ovarian,> 100 µM
same,TGI,OVCAR-3 ovarian,> 100 µM
same,GI50,MCF7 breast,36.2 µM
same,TGI,MCF7 breast,> 100 µM
same,GI50,NCI-H23 lung,> 100 µM
same,TGI,NCI-H23 lung,> 100 µM
same,GI50,UACC-62 melanoma,> 100 µM
same,TGI,UACC-62 melanoma,> 100 µM
same,GI50,HCC-2998 colon,> 100 µM
same,TGI,HCC-2998 colon,> 100 µM
same,GI50,786-0 renal,69.8 µM
same,TGI,786-0 renal,> 100 µM
same,GI50,U251 glioblastoma,> 100 µM
same,TGI,U251 glioblastoma,> 100 µM
same,GI50,M14 melanoma,> 100 µM
same,TGI,M14 melanoma,> 100 µM
same,GI50,MOLT-4 leukemia,29.5 µM
same,TGI,MOLT-4 leukemia,> 100 µM
same,GI50,UACC-257 melanoma,> 100 µM
same,TGI,UACC-257 melanoma,> 100 µM
same,GI50,IGROV1 ovarian,38.5 µM
same,TGI,IGROV1 ovarian,> 100 µM
same,GI50,OVCAR-4 ovarian,> 100 µM
same,TGI,OVCAR-4 ovarian,> 100 µM
same,GI50,TK-10 renal,37.4 µM
same,TGI,TK-10 renal,> 100 µM
same,GI50,SF-268 CNS,> 100 µM
same,TGI,SF-268 CNS,> 100 µM
same,GI50,RXF 393 renal,> 100 µM
same,TGI,RXF 393 renal,> 100 µM
same,GI50,SK-MEL-28 melanoma,> 100 µM
same,TGI,SK-MEL-28 melanoma,> 100 µM
same,GI50,SF-539 CNS,> 100 µM
same,TGI,SF-539 CNS,> 100 µM
same,GI50,MALME-3M melanoma,> 100 µM
same,TGI,MALME-3M melanoma,> 100 µM
same,GI50,SNB-75 CNS,> 100 µM
same,TGI,SNB-75 CNS,> 100 µM
same,GI50,KM12 colon,> 100 µM
same,TGI,KM12 colon,> 100 µM
same,GI50,LOX IMVI melanoma,> 100 µM
same,TGI,LOX IMVI melanoma,> 100 µM
same,GI50,K-562 leukemia,36.1 µM
same,TGI,K-562 leukemia,> 100 µM
same,GI50,A498 renal,> 100 µM
same,TGI,A498 renal,> 100 µM
same,GI50,NCI/ADR-RES ovarian,> 100 µM
same,TGI,NCI/ADR-RES ovarian,> 100 µM
same,GI50,COLO 205 colon,> 100 µM
same,TGI,COLO 205 colon,> 100 µM
same,GI50,SNB-19 CNS,> 100 µM
same,TGI,SNB-19 CNS,> 100 µM
same,GI50,OVCAR-5 ovarian,> 100 µM
same,TGI,OVCAR-5 ovarian,> 100 µM
same,GI50,UO-31 renal,31.4 µM
same,TGI,UO-31 renal,> 100 µM
same,GI50,PC-3 prostate,> 100 µM
same,TGI,PC-3 prostate,> 100 µM
same,GI50,A549 NSCLC,39.2 µM
same,TGI,A549 NSCLC,> 100 µM
same,GI50,MDA-MB-435 melanoma,> 100 µM
same,TGI,MDA-MB-435 melanoma,> 100 µM
same,GI50,NCI-H460 NSCLC,71.6 µM
same,TGI,NCI-H460 NSCLC,> 100 µM
same,GI50,EKVX NSCLC,> 100 µM
same,TGI,EKVX NSCLC,> 100 µM
same,GI50,MDA-MB-231 breast,> 100 µM
same,TGI,MDA-MB-231 breast,> 100 µM
same,GI50,NCI-H226 lung,91.2 µM
same,TGI,NCI-H226 lung,> 100 µM
same,GI50,SK-OV-3 ovarian,62.5 µM
same,TGI,SK-OV-3 ovarian,> 100 µM
same,GI50,HCT-116 colon,> 100 µM
same,TGI,HCT-116 colon,> 100 µM
same,GI50,HCT-15 colon,58.7 µM
same,TGI,HCT-15 colon,> 100 µM
same,GI50,ACHN renal,36.3 µM
same,TGI,ACHN renal,> 100 µM
same,GI50,SR leukemia,31.6 µM
same,TGI,SR leukemia,> 100 µM
same,GI50,SN12C renal,> 100 µM
same,TGI,SN12C renal,> 100 µM
same,GI50,HL-60(TB) leukemia,77 µM
same,TGI,HL-60(TB) leukemia,> 100 µM
same,GI50,SW-620 colon,> 100 µM
same,TGI,SW-620 colon,> 100 µM
same,GI50,CAKI-1 renal,31.7 µM
same,TGI,CAKI-1 renal,> 100 µM
same,GI50,CCRF-CEM leukemia,50 µM
same,TGI,CCRF-CEM leukemia,> 100 µM
